# Assay results: PubChem BioAssay AID1845196 (Molecular Pharmacology Branch, DTP, NCI, 2023)
# “And” between values parts separate entries of the source, which are not always exact repeats. Equal entries are not always repeated.
# Tested on: 292921-168-R tumor spheroid viability
# Assay: Anticancer human tumor 292921-168-R patient-derived pancreatic carcinoma cell line growth inhibition
# Details: spheroids with HUVEC and MSC; for viability, T/C: stronger effect = lower value
# Summary of the method: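 Complex spheroids of malignant cells with endothelial cells and mesenchymal stem cells; agents alone or combined, from near clinical Cmax (or 10 microM if unknown) down in half-log steps, 0.25% DMSO final.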
# 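Further: spheroids exposed to compounds for 7 days.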
smiles,measurement,setting,value
COc1ccc([C@@H](O)c2cc(-c3ncnc4cc(N5CCOCC5)ccc34)c(F)cc2Cl)nn1 + CC[C@@]1(O)C(=O)OCc2c1cc1n(c2=O)Cc2cc3c(CN(C)C)c(O)ccc3nc2-1,IC50,"curve of first compound, second compound 0.003 µM",1.35 µM
same,IC50,"curve of first compound, second compound 0.00949 µM",0.974 µM
same,IC50,"curve of first compound, second compound 0.03 µM",< 0.0316 µM
same,IC50,"curve of first compound, second compound 0.0949 µM",< 0.0316 µM
same,IC50,"curve of first compound, second compound 0.3 µM",< 0.0316 µM
same,"viability, T/C","second compound 0.003 µM, first compound 0.0316 µM",102%
same,"viability, T/C","second compound 0.003 µM, first compound 0.1 µM",94.4%
same,"viability, T/C","second compound 0.003 µM, first compound 0.316 µM",77.8%
same,"viability, T/C","second compound 0.003 µM, first compound 1 µM",55.3%
same,"viability, T/C","second compound 0.003 µM, first compound 3.16 µM",34.8%
same,"viability, T/C","second compound 0.003 µM, first compound 10 µM",20.8%
same,"viability, T/C","second compound 0.00949 µM, first compound 0.0316 µM",77.5%
same,"viability, T/C","second compound 0.00949 µM, first compound 0.1 µM",74.5%
same,"viability, T/C","second compound 0.00949 µM, first compound 0.316 µM",71.9%
same,"viability, T/C","second compound 0.00949 µM, first compound 1 µM",45.6%
same,"viability, T/C","second compound 0.00949 µM, first compound 3.16 µM",32.9%
same,"viability, T/C","second compound 0.00949 µM, first compound 10 µM",17.9%
same,"viability, T/C","second compound 0.03 µM, first compound 0.0316 µM",41.8%
same,"viability, T/C","second compound 0.03 µM, first compound 0.1 µM",38.7%
same,"viability, T/C","second compound 0.03 µM, first compound 0.316 µM",34.5%
same,"viability, T/C","second compound 0.03 µM, first compound 1 µM",25.8%
same,"viability, T/C","second compound 0.03 µM, first compound 3.16 µM",21.5%
same,"viability, T/C","second compound 0.03 µM, first compound 10 µM",17.1%
same,"viability, T/C","second compound 0.0949 µM, first compound 0.0316 µM",10.8%
same,"viability, T/C","second compound 0.0949 µM, first compound 0.1 µM",12%
same,"viability, T/C","second compound 0.0949 µM, first compound 0.316 µM",12.5%
same,"viability, T/C","second compound 0.0949 µM, first compound 1 µM",13.2%
same,"viability, T/C","second compound 0.0949 µM, first compound 3.16 µM",14.5%
same,"viability, T/C","second compound 0.0949 µM, first compound 10 µM",13.8%
same,"viability, T/C","second compound 0.3 µM, first compound 0.0316 µM",3.98%
same,"viability, T/C","second compound 0.3 µM, first compound 0.1 µM",3.78%
same,"viability, T/C","second compound 0.3 µM, first compound 0.316 µM",4.06%
same,"viability, T/C","second compound 0.3 µM, first compound 1 µM",4.72%
same,"viability, T/C","second compound 0.3 µM, first compound 3.16 µM",6.62%
same,"viability, T/C","second compound 0.3 µM, first compound 10 µM",8.28%
COc1cc(C)[nH]c(=O)c1CN1CCc2c(Cl)cc(C(OC)C3COC3)c(Cl)c2C1=O (configuration not stated),"viability, T/C",compound 0.0316 µM,108% and 97.3% and 113%
same,"viability, T/C",compound 0.1 µM,112% and 106% and 113%
same,"viability, T/C",compound 0.316 µM,115% and 92.9% and 89.7%
same,"viability, T/C",compound 1 µM,109% and 95.4% and 97.2%
same,"viability, T/C",compound 3.16 µM,90.3% and 89.2% and 90.4%
same,"viability, T/C",compound 10 µM,101% and 89.8% and 75.1%
same,IC50,curve of compound,> 10 µM
Cc1cc(C)c(CNC(=O)c2cc(-c3ccc(CN4CCOCC4)cc3)cc3c2cnn3C2CCCC2)c(=O)[nH]1 + Cn1nnc2c(C(N)=O)ncn2c1=O,IC50,"curve of first compound, second compound 1 µM",> 10 µM
same,IC50,"curve of first compound, second compound 3.16 µM",> 10 µM
same,IC50,"curve of first compound, second compound 10 µM",> 10 µM
same,IC50,"curve of first compound, second compound 31.6 µM",> 10 µM
same,IC50,"curve of first compound, second compound 100 µM",> 10 µM
same,"viability, T/C","second compound 1 µM, first compound 0.0316 µM",91.6%
same,"viability, T/C","second compound 1 µM, first compound 0.1 µM",92.7%
same,"viability, T/C","second compound 1 µM, first compound 0.316 µM",97.4%
same,"viability, T/C","second compound 1 µM, first compound 1 µM",86.6%
same,"viability, T/C","second compound 1 µM, first compound 3.16 µM",78.7%
same,"viability, T/C","second compound 1 µM, first compound 10 µM",54.3%
same,"viability, T/C","second compound 3.16 µM, first compound 0.0316 µM",94.2%
same,"viability, T/C","second compound 3.16 µM, first compound 0.1 µM",96.6%
same,"viability, T/C","second compound 3.16 µM, first compound 0.316 µM",94.9%
same,"viability, T/C","second compound 3.16 µM, first compound 1 µM",92.4%
same,"viability, T/C","second compound 3.16 µM, first compound 3.16 µM",85.2%
same,"viability, T/C","second compound 3.16 µM, first compound 10 µM",60.4%
same,"viability, T/C","second compound 10 µM, first compound 0.0316 µM",86.8%
same,"viability, T/C","second compound 10 µM, first compound 0.1 µM",94.4%
same,"viability, T/C","second compound 10 µM, first compound 0.316 µM",96%
same,"viability, T/C","second compound 10 µM, first compound 1 µM",92.5%
same,"viability, T/C","second compound 10 µM, first compound 3.16 µM",83.7%
same,"viability, T/C","second compound 10 µM, first compound 10 µM",56.1%
same,"viability, T/C","second compound 31.6 µM, first compound 0.0316 µM",88.5%
same,"viability, T/C","second compound 31.6 µM, first compound 0.1 µM",86.4%
same,"viability, T/C","second compound 31.6 µM, first compound 0.316 µM",83.5%
same,"viability, T/C","second compound 31.6 µM, first compound 1 µM",92.5%
same,"viability, T/C","second compound 31.6 µM, first compound 3.16 µM",85.7%
same,"viability, T/C","second compound 31.6 µM, first compound 10 µM",51.1%
same,"viability, T/C","second compound 100 µM, first compound 0.0316 µM",83.5%
same,"viability, T/C","second compound 100 µM, first compound 0.1 µM",87.2%
same,"viability, T/C","second compound 100 µM, first compound 0.316 µM",83.5%
same,"viability, T/C","second compound 100 µM, first compound 1 µM",77.2%
same,"viability, T/C","second compound 100 µM, first compound 3.16 µM",79.1%
same,"viability, T/C","second compound 100 µM, first compound 10 µM",52.5%
